Test results as given in US10913766B2, “Liver specific delivery-based entecavir prodrug, nucleoside cyclic phosphate compound, and application thereof” (ZHEJIANG PALO ALTO PHARMACEUTICALS, INC., priority 2017, dated 2021).

Assays:
[1] = set-up: species or system Male SD (Sprague-Dawley) rats; details: rat, in vivo, po, 0.036 mmol/kg
Experimental: Male SD (Sprague-Dawley) rats, weighing 180 to 300 g, were provided by Shanghai Xipuer-Beikai Experimental Animal Co., Ltd. The male animals were acclimatized to the environment for more than 3 days, and fasted for 12 hours overnight before the experiment, but were allowed to drink water. […] Before administration, the animals were checked to determine whether their body weights met the experimental requirements. Twelve rats were selected for grouping, two rats in each group. The drug solutions were administered intragastrically to the rats in an amount of 0.036 mmol/kg. The rats were euthanized with carbon dioxide gas and samples were collected, at 0.5 h, 1 h, 3 h, 6 h, 12 h, and 24 h, respectively. […] The supernatant plasma was taken, to which 10% trichloroacetic acid (containing PMPA as an internal standard, at a concentration of 100 ng/mL) was immediately added as a precipitant at a volume 5 times that of the plasma, to obtain plasma sample solutions. […] Two ceramic beads were added to each of the homogenization tubes for homogenization to obtain tissue homogenate samples. 100 μL of each biological sample was taken, placed in a 1.5 mL test tube, and centrifuged for 5 min. 20 μL of the supernatant was taken and mixed uniformly with 180 μL of water and then analyzed by LC-MS/MS. LC-MS/MS-AJ (Triple Quad 5500, AB SCIEX) was used for analysis of the samples. Chromatographic Column: Acquity UPLC HSS T3 (2.1×50 mm, 1.8 μm); Column Temperature: 40° C.; Flow Rate: 0.5 mL/min. Mobile Phase A: 0.1% formic acid in water, Mobile Phase B: Acetonitrile Solution. The mass spectrometry was performed with an electrospray ionization source (Turbo Ionspray) as an ion source, in a positive ion mode, at a capillary voltage of 3.0 kV, at a temperature of 500° C., and at a desolvation gas flow of 1000 L/h. The scanning time, cone voltage, collision energy, and the ion reaction for quantitative analysis were shown in Table 6 below: The concentration of the metabolite from each of the compounds in the liver was plotted as a function of time on a bar chart.

[2] = In-vitro metabolism in rat liver microsomes, release of ETVMP (Example 24); assay type: in vitro ADME; details: result in words
Excerpt: (§1) Human liver microsomes (HLM) were purchased from IVT (In Vitro Technologies) (Product No. X008070, Batch No. SSP). Rat liver microsomes (RLM) were purchased from BD with a batch number of 16298, and mice liver microsomes (MLM) were purchased from Research Institute for Liver Diseases (Shanghai) Co., Ltd. (RILD), with a batch number of BQNI.
(§2) The test compounds PA3001, PA3002, PA3003, and PA3004 were synthesized by Zhejiang Palo Alto Pharmaceuticals, Inc., and dissolved in methanol (from Sinopharm Chemical Reagent Co., Ltd.) to prepare storage solutions at a concentration of 25 mM.
(§3) The enzymatic reaction was carried out in a 100 mM KH2PO4 buffer solution (pH 7.4), with a test compound at a concentration of 25 μM, human liver microsomes at a concentration of 2 mg/ml, and NADPH at a concentration of 2 mM. The reaction was initiated by NADPH which was added last. After the reaction was carried out for 5 min in a constant-temperature shaking water bath kettle, methanol at a volume of 1.5 times that of the reaction mixture was added immediately to terminate the reaction.
(§4) Each sample was centrifuged at a maximum speed of 13,600 rpm for 20 minutes using an Eppendorf tabletop centrifuge. The supernatant was taken, and was blow-dried by a nitrogen blower and then re-dissolved in mobile phase A (0.1% formic acid (v/v) in water).
(§5) • Analysis Column: Waters, Acquity UPLC HSS T3 Column • Flow Rate: 0.5 ml/min • Column Temperature: 40 degrees Celsius • III. Mass Spectrometry Condition • Ion Source: Electrospray Ionization Source • Ion Mode: Positive Ion Mode • Capillary Voltage: 3.0 kV • Temperature: 500° C. • Desolvation Gas Flow Rate: […] • Scan Time: 0.025 s • Cone Voltage: 40 V • Collision Energy: 18 eV • Q1 (m/z): 358 • Q3 (m/z): 152

[3] = In-vitro metabolism in mice liver microsomes, release of ETVMP (Example 24); assay type: in vitro ADME, mouse; details: result in words
Excerpt: as §1, §2, §3, §4, §5

[4] = In-vitro metabolism in human liver microsomes, release of ETVMP (Example 24); assay type: in vitro ADME; details: result in words
Excerpt: as §1, §2, §3, §4, §5

hepatitis B virus (HBV) = details: read-out: EC50, antiviral activity in vitro; cited from earlier work
[5] = tested on: lamivudine-resistant virus strains; details: read-out: EC50, inhibitory activity against lamivudine-resistant virus strains; cited from earlier work

SMILES	AUC0-24 h of ETVMP in Brain Tissue [1] [nmol·h/g]	AUC0-24 h of ETVMP in Liver [1] [nmol·h/g]	AUC0-24 h of ETVMP in Plasma [1] [nmol·h/g]	Activated in vitro into monophosphate metabolite ETVMP by rat liver microsomes [2]	Activated in vitro into monophosphate metabolite ETVMP by mouse liver microsomes [3]	Activated in vitro into monophosphate metabolite ETVMP by human liver microsomes [4]	Rank of conversion rate among tested compounds, rat liver microsomes ([2]; Table 3)	Rank of conversion rate among tested compounds, mouse liver microsomes ([3]; Table 3)	Efficiency of activation by human liver microsomes into ETVMP compared with comparative compound PA3001 [4]	Rank of conversion rate among tested compounds, human liver microsomes ([4]; Table 3)	EC50 (hepatitis B virus (HBV)) [nM]	EC50 [5] [nM]
C=C1[C@H](COP2(=O)OCC[C@H](c3cccc(Cl)c3)O2)[C@@H](O)C[C@@H]1n1cnc2c(=O)[nH]c(N)nc21 (stereo partly drawn) [PA3001]	0.2	16.2	0.17	activated	activated	activated						
C=C1[C@H](COP2(=O)OCC[C@H](c3cc(Cl)ccc3Cl)O2)[C@@H](O)C[C@@H]1n1cnc2c(=O)[nH]c(N)nc21 (stereo partly drawn) [PA3017]		9.0	0.08									
C=C1[C@H](COP2(=O)OCC[C@H](c3cc(Cl)ccc3F)O2)[C@@H](O)C[C@@H]1n1cnc2c(=O)[nH]c(N)nc21 (stereo partly drawn) [PA3004]		11.6	0.09	activated	activated	activated	highest rate	highest rate	significantly greater	highest rate		
C=C1[C@H](COP2(=O)OCC[C@H](c3ccncc3)O2)[C@@H](O)C[C@@H]1n1cnc2c(=O)[nH]c(N)nc21 (stereo partly drawn) [PA3003]	1.1	18.9	0.19	activated	activated	activated						
C=C1[C@H](COP2(=O)OCC[C@H](c3cc(F)cc(Cl)c3)O2)[C@@H](O)C[C@@H]1n1cnc2c(=O)[nH]c(N)nc21 (stereo partly drawn) [PA3002]		8.1	0.03						significantly greater			
C=C1[C@@H](CO)[C@@H](O)C[C@@H]1n1cnc2c(=O)[nH]c(N)nc21 [ETV, 2-amino-9-[(1S,3S,4S)-4-hydroxy-3-hydroxymethyl-2-methylenecyclopentyl]-1,9-dihydro-6H-purine-6-one, reference compound]		16.6	0.55								4	10 to 59
